We go through 28 compounds from patent publication US10370343B2, “[6,6] Fused bicyclic HDAC8 inhibitors” (FORMA Therapeutics, Inc., priority 2015, dated 2019).

Experiment [1] addresses T1, Full length human recombinant HDAC8 protein (Homo sapiens, UniProt Q9BY41).
T1 construct: Full length human recombinant HDAC8 protein was expressed in baculoviral system; made in house
T1 sequence (Q9BY41 1-377): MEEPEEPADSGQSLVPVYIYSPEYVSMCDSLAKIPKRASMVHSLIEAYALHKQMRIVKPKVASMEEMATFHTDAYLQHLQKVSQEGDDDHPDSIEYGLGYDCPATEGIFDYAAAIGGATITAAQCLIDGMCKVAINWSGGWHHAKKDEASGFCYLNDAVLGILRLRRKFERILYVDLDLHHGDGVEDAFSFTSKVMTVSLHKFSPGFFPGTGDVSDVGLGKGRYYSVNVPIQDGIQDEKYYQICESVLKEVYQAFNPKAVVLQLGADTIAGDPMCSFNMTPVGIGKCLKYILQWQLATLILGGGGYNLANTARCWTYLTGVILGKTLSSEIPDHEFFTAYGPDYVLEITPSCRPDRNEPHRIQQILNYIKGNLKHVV
Kind of experiment: In vitro histone deacetylase assay: enzymatic HDAC8 electrophoretic mobility shift assay. Type of experiment: biochemical. Particulars: electrophoretic mobility shift assay; enzyme 1 nM; 2 μM fluorescently labeled peptide substrate RHKK(Ac)-NH2; 25° C.; 12 concentrations; read-out: HDAC8 IC50.

In experiment [2] the target is T2, Recombinant N-terminal GST tag full-length human HDAC8 (Homo sapiens, UniProt Q9BY41).
T2 construct: Recombinant N-terminal GST tag full-length human HDAC8; purchased SignalChem H90-30G-1000; host or cells: baculovirus in Sf9 insect cells
T2 sequence (Q9BY41 1-377): T1 sequence (Q9BY41 1-377)
In words: HDAC8 probe binding assay, time resolved fluorescence (TRF) format. The note with it: compounds grouped by IC50 range (Table 2). The essentials:
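IC50 values come from four-parameter logistic fits of percent inhibition, scaled between DMSO (high) and no-enzyme (low) controls. Time-resolved fluorescence (ex 340, em 485/535 nm) was read after 16 h at room temperature. Enzyme was Sf9-expressed full-length human HDAC8 with an N-terminal GST tag, in a probe-binding format.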

Take `COc1ccc(CN2C(=O)COc3ccc(C(=O)NO)cc32)cc1C(F)(F)F` [Compound I-246, N-hydroxy-4-(4-methoxy-3-(trifluoromethyl)benzyl)-3-oxo-3,4-dihydro-2H-benzo[b][1,4]oxazine-6-carboxamide]: the half-maximal inhibitory concentration (IC50) (as a rule, the midpoint of a concentration-inhibition curve) in experiment [1] was less than 0.025 µM; in experiment [2], not above 0.025 µM.

Consider `COc1ccc(CN2C(=O)COc3ccc(C(=O)NO)cc32)c(F)c1F` [Compound I-247, 4-(2,3-difluoro-4-methoxybenzyl)-N-hydroxy-3-oxo-3,4-dihydro-2H-benzo[b][1,4]oxazine-6-carboxamide], for which the figures for the IC50 in experiment [1] and in experiment [2] were less than 0.025 µM and not above 0.025 µM, respectively.

Turning to `COc1cc(F)c(CN2C(=O)COc3ccc(C(=O)NO)cc32)c(F)c1` [Compound I-248, 4-(2,6-difluoro-4-methoxybenzyl)-N-hydroxy-3-oxo-3,4-dihydro-2H-benzo[b][1,4]oxazine-6-carboxamide], the IC50 was less than 0.025 µM in experiment [1] and not above 0.025 µM in experiment [2].

For `COc1ccc(CN2C(=O)COc3ccc(C(=O)NO)cc32)c(C(F)(F)F)c1` [Compound I-249, N-hydroxy-4-(4-methoxy-2-(trifluoromethyl)benzyl)-3-oxo-3,4-dihydro-2H-benzo[b][1,4]oxazine-6-carboxamide], the results for the half-inhibitory concentration (IC50) in experiment [1] and in experiment [2] were 0.1 to 1 µM and 0.025 to 0.1 µM, respectively.

Consider `CCOc1c(F)cc(CN2C(=O)COc3ccc(C(=O)NO)cc32)cc1F` [Compound I-250, 4-(4-ethoxy-3,5-difluorobenzyl)-N-hydroxy-3-oxo-3,4-dihydro-2H-benzo[b][1,4]oxazine-6-carboxamide], for which the IC50 in experiment [1] and in experiment [2] was 0.025 to 0.1 µM in each case.

For the compound `O=C(NO)c1ccc2c(c1)N(Cc1ccc(-c3ccccc3)cc1)C(=O)CO2` [Compound I-251, 4-([1,1′-biphenyl]-4-ylmethyl)-N-hydroxy-3-oxo-3,4-dihydro-2H-benzo[b][1,4]oxazine-6-carboxamide], the half-maximal inhibitory concentration (IC50) in experiment [1] is less than 0.025 µM; in experiment [2], not above 0.025 µM.

Consider `O=C(NO)c1ccc2c(c1)N(Cc1cc(Cl)ccc1Cl)C(=O)CO2` [Compound I-252, 4-(2,5-dichlorobenzyl)-N-hydroxy-3-oxo-3,4-dihydro-2H-benzo[b][1,4]oxazine-6-carboxamide], for which the values for the IC50 in experiment [1] and in experiment [2] were less than 0.025 µM and not above 0.025 µM, respectively.

On to `O=C(NO)c1ccc2c(c1)N(Cc1c(Cl)cccc1Cl)C(=O)CO2` [Compound I-253, 4-(2,6-dichlorobenzyl)-N-hydroxy-3-oxo-3,4-dihydro-2H-benzo[b][1,4]oxazine-6-carboxamide], for which the IC50 in experiment [1] and in experiment [2] was 0.025 to 0.1 µM each time.

On to `O=C(NO)c1ccc2c(c1)N(Cc1cccc(Cl)c1Cl)C(=O)CO2` [Compound I-254, 4-(2,3-dichlorobenzyl)-N-hydroxy-3-oxo-3,4-dihydro-2H-benzo[b][1,4]oxazine-6-carboxamide], for which the IC50 is less than 0.025 µM in experiment [1] and not above 0.025 µM in experiment [2].

As to `O=C(NO)c1ccc2c(c1)N(Cc1nc(-c3ccccc3)sc1Cl)C(=O)CO2` [Compound I-255, 4-((5-chloro-2-phenylthiazol-4-yl)methyl)-N-hydroxy-3-oxo-3,4-dihydro-2H-benzo[b][1,4]oxazine-6-carboxamide], the half-maximal inhibitory concentration (IC50) in experiment [1] is 0.025 to 0.1 µM; in experiment [2], not above 0.025 µM.

Take `O=C(NO)c1ccc2c(c1)N(Cc1ccc(Cl)cc1Cl)C(=O)CO2` [Compound I-256, 4-(2,4-dichlorobenzyl)-N-hydroxy-3-oxo-3,4-dihydro-2H-benzo[b][1,4]oxazine-6-carboxamide]: the IC50 in experiment [1] was less than 0.025 µM; in experiment [2] it was not above 0.025 µM.

Regarding `O=C(NO)c1ccc2c(c1)N(Cc1ccc(Cl)c(Cl)c1)C(=O)CO2` [Compound I-258, 4-(3,4-dichlorobenzyl)-N-hydroxy-3-oxo-3,4-dihydro-2H-benzo[b][1,4]oxazine-6-carboxamide], the results for the IC50 in experiment [1] and in experiment [2] were less than 0.025 µM and not above 0.025 µM, respectively.

As to `O=C(NO)c1ccc2c(c1)N(Cc1cc(C(F)(F)F)ccc1Cl)C(=O)CO2` [Compound I-259, 4-(2-chloro-5-(trifluoromethyl)benzyl)-N-hydroxy-3-oxo-3,4-dihydro-2H-benzo[b][1,4]oxazine-6-carboxamide], the IC50 was less than 0.025 µM in experiment [1] and not above 0.025 µM in experiment [2].

As for `O=C(NO)c1ccc2c(c1)N(Cc1cccc(SC(F)(F)F)c1)C(=O)CO2` [Compound I-263, N-hydroxy-3-oxo-4-(3-((trifluoromethyl)thio)benzyl)-3,4-dihydro-2H-benzo[b][1,4]oxazine-6-carboxamide], the figures for the IC50 in experiment [1] and in experiment [2] were less than 0.025 µM and not above 0.025 µM, respectively.

With `O=C(NO)c1ccc2c(c1)N(Cc1ccc(SC(F)(F)F)cc1)C(=O)CO2` [Compound I-264, N-hydroxy-3-oxo-4-(4-((trifluoromethyl)thio)benzyl)-3,4-dihydro-2H-benzo[b][1,4]oxazine-6-carboxamide], the IC50 is less than 0.025 µM in experiment [1] and not above 0.025 µM in experiment [2].

For `O=C(NO)c1ccc2c(c1)N(Cc1cccc(C(F)(F)F)c1F)C(=O)CO2` [Compound I-265, 4-(2-fluoro-3-(trifluoromethyl)benzyl)-N-hydroxy-3-oxo-3,4-dihydro-2H-benzo[b][1,4]oxazine-6-carboxamide], the IC50 in experiment [1] and in experiment [2] was 0.025 to 0.1 µM throughout.

`O=C(NO)c1ccc2c(c1)N(Cc1ccc(F)c(C(F)(F)F)c1)C(=O)CO2` [Compound I-267, 4-(4-fluoro-3-(trifluoromethyl)benzyl)-N-hydroxy-3-oxo-3,4-dihydro-2H-benzo[b][1,4]oxazine-6-carboxamide]: the IC50 in experiment [1] and in experiment [2] was 0.025 to 0.1 µM throughout.

Turning to `O=C(NO)c1ccc2c(c1)N(Cc1cc(F)ccc1C(F)(F)F)C(=O)CO2` [Compound I-268, 4-(5-fluoro-2-(trifluoromethyl)benzyl)-N-hydroxy-3-oxo-3,4-dihydro-2H-benzo[b][1,4]oxazine-6-carboxamide], the half-maximal inhibitory concentration (IC50) in experiment [1] and in experiment [2] was 0.025 to 0.1 µM each time.

Turning to `O=C(NO)c1ccc2c(c1)N(Cc1ccc(F)cc1Cl)C(=O)CO2` [Compound I-270, 4-(2-chloro-4-fluorobenzyl)-N-hydroxy-3-oxo-3,4-dihydro-2H-benzo[b][1,4]oxazine-6-carboxamide], the 50% inhibitory concentration (IC50) in experiment [1] is less than 0.025 µM; in experiment [2], not above 0.025 µM.

Take `O=C(NO)c1ccc2c(c1)N(Cc1csc(-c3ccccc3)n1)C(=O)CO2` [Compound I-271, N-hydroxy-3-oxo-4-((2-phenylthiazol-4-yl)methyl)-3,4-dihydro-2H-benzo[b][1,4]oxazine-6-carboxamide]: the IC50 in experiment [1] and in experiment [2] was 0.025 to 0.1 µM in each case.

As to `O=C(NO)c1ccc2c(c1)N(Cc1nc3cc(Cl)ccc3o1)C(=O)CO2` [Compound I-272, 4-((5-chlorobenzo[d]oxazol-2-yl)methyl)-N-hydroxy-3-oxo-3,4-dihydro-2H-benzo[b][1,4]oxazine-6-carboxamide], the values for the 50% inhibitory concentration (IC50) in experiment [1] and in experiment [2] were less than 0.025 µM and not above 0.025 µM, respectively.

For the compound `O=C(NO)c1ccc2c(c1)N(Cc1c(F)cccc1Cl)C(=O)CO2` [Compound I-273, 4-(2-chloro-6-fluorobenzyl)-N-hydroxy-3-oxo-3,4-dihydro-2H-benzo[b][1,4]oxazine-6-carboxamide], the 50% inhibitory concentration (IC50) in experiment [1] and in experiment [2] was 0.025 to 0.1 µM each time.

As to `O=C(NO)c1ccc2c(c1)N(Cc1ccc(C(F)(F)F)cc1F)C(=O)CO2` [Compound I-274, 4-(2-fluoro-4-(trifluoromethyl)benzyl)-N-hydroxy-3-oxo-3,4-dihydro-2H-benzo[b][1,4]oxazine-6-carboxamide], the IC50 in experiment [1] is less than 0.025 µM; in experiment [2] it was not above 0.025 µM.

With `O=C(NO)c1ccc2c(c1)N(Cc1c(F)cccc1C(F)(F)F)C(=O)CO2` [Compound I-275, 4-(2-fluoro-6-(trifluoromethyl)benzyl)-N-hydroxy-3-oxo-3,4-dihydro-2H-benzo[b][1,4]oxazine-6-carboxamide], the IC50 in experiment [1] and in experiment [2] was 0.025 to 0.1 µM throughout.

For `O=C(NO)c1ccc2c(c1)N(Cc1cc(F)cc(C(F)(F)F)c1)C(=O)CO2` [Compound I-276, 4-(3-fluoro-5-(trifluoromethyl)benzyl)-N-hydroxy-3-oxo-3,4-dihydro-2H-benzo[b][1,4]oxazine-6-carboxamide], the concentration for half-maximal inhibition (IC50) in experiment [1] and in experiment [2] was 0.025 to 0.1 µM throughout.

In the case of `O=C(NO)c1ccc2c(c1)N(Cc1ccc(F)cc1C(F)(F)F)C(=O)CO2` [Compound I-277, 4-(4-fluoro-2-(trifluoromethyl)benzyl)-N-hydroxy-3-oxo-3,4-dihydro-2H-benzo[b][1,4]oxazine-6-carboxamide], the half-maximal inhibitory concentration (IC50) in experiment [1] lay within 0.1 to 1 µM; in experiment [2], 0.025 to 0.1 µM.

`Cn1c(CN2C(=O)COc3ccc(C(=O)NO)cc32)nc2ccc(Cl)cc21` [Compound I-278, 4-((6-chloro-1-methyl-1H-benzo[d]imidazol-2-yl)methyl)-N-hydroxy-3-oxo-3,4-dihydro-2H-benzo[b][1,4]oxazine-6-carboxamide]: the half-maximal inhibitory concentration (IC50) in experiment [1] and in experiment [2] was 0.025 to 0.1 µM in each case.

Consider `Cc1ccc(CN2C(=O)COc3ccc(C(=O)NO)cc32)c(C)c1` [Compound I-280, 4-(2,4-dimethylbenzyl)-N-hydroxy-3-oxo-3,4-dihydro-2H-benzo[b][1,4]oxazine-6-carboxamide], for which the values for the IC50 in experiment [1] and in experiment [2] were 0.025 to 0.1 µM and not above 0.025 µM, respectively.
